US20110144012A1, “SHORTENED GLUCAGON-LIKE PEPTIDE 1(SGLP-1) PREPARATION METHOD AND APPLICATION” (Dalian D.N. Bio-Engineering Co., Ltd., priority 2005, published 2011)

Columns and labels:
[1] = in comparison with GLP-1; cited from earlier work
[2] = in comparison with GLP-1; U.S. Pat. No. 5,424,286; cited from earlier work
[3] = system: GK diabetes mellitus rats; experiment: Blood glucose-lowering effect experiment in GK diabetes mellitus rats (fasting blood glucose level); assay type: in vivo; conditions: injected 0.1 mg/time, twice a day for two weeks, fasted overnight
Method: Material and Method • GK diabetes mellitus rats (Provided by Shanghai Laboratory Animal Center, Chinese Academy of Sciences)
sGLP-1 sequence is as follows:
• The above eight polypeptides with different sequence is mixed with 0.9% NaCl solution to prepare 1 mg/ml solution, which is standby. • The rats are grouped at random, and fast overnight. Use graduated capillaries (treated with heparin before injection) to sample 20 microliters of blood from their orbital sinuses, add 300 microliters of normal saline to the blood and mix well, centrifuge it at 3000 rpm to remove erythrocyte, and use blood serum for fasting blood glucose level determination. Inject each group of rats with different polypeptides, and use normal saline as Control N. All the rats are injected at 0.1 mg/time, twice a day for two weeks. They must fast overnight, and be sampled according to the above method for fasting blood glucose level determination. […] No. 1 sequence is full-length GLP-1 sequence, in which the second amino acid is changed from A to G, as Control P; No. 2 to No. 5 are the reconstructed sequences with different shortened length.

NOD mice [4] = experiment: Blood glucose-lowering effect on NOD mice (glucose injection); assay type: in vivo; conditions: for blood glucose level, 0 minutes after administration / blood glucose level, 5 minutes after administration / blood glucose level, 10 minutes after administration / blood glucose level, 20 minutes after administration: NOD mice fasted overnight, 200 microliters 40% glucose + 10 microgram peptide; for blood glucose-lowering effect (in words): NOD mice, glucose injection + 10 microgram peptide
Method: Experimental Material and Method: • NOD mice (Provided by Shanghai Laboratory Animal Center, Chinese Academy of Sciences) fasting overnight. • 40% glucose, 0.9% NaCl solution, pure sGLP-1 product (Prepared in Example 1), pure GLP-1 product, reagent kit for blood glucose level determination (Made by Shanghai Institute of Biological Products (SIBP), Ministry of Health P.R.China.) NOD mice fast overnight, and are divided into three groups. Fasting Group 1 is injected with 200 microliters of 40% glucose and 10 microgram of sGLP-1; Fasting Group 2 is injected with 200 microliters of 40% glucose and 10 microgram of GLP-1; Group 3, a control group, is injected with only glucose. Immediately use graduated capillaries (treated with heparin before injection) to sample 20 microliters of blood from their orbital sinuses, add 300 microliters of normal saline to the blood and mix well, centrifuge it at 3000 rpm to remove erythrocyte, and use blood serum for fasting blood glucose level determination. […] The blood serum of the three groups is determined on blood glucose level according to the method in the reagent kit in order to check the blood glucose-lowering effect of each group.

NOD mice [5] = experiment: Insulinotropic hormone secretion effect of sGLP-1 (serum insulin, radio immunity kit); assay type: in vivo; conditions: fasting NOD mice, 10 microgram injected
Method: Experimental Material and Method: • NOD mice (Provided by Shanghai Laboratory Animal Center, Chinese Academy of Sciences) • 0.9% NaCl solution, pure sGLP-1 product (prepared in Example 1), pure GLP-1 product, and radio immunity insulin determination reagent kit (Made by Shanghai Institute of Biological Products (SIBP), Ministry of Health P.R.China.) NOD mice are divided into three groups. Use graduated capillary (wash the inner walls of the capillaries with 1 mg/mL heparin and dry the capillaries) to sample 50 microliters of blood from their orbital sinuses first, and inject the three groups of fasting mice with 10 microgram of sGLP-1, 10 microgram of GLP-1 and 200 microliters of normal saline, and regard this time as zero. Repeat the above operation at 5, 10, 20 and 30 minutes after that respectively. Place all the blood samples in a centrifuge tube with 50 microliters of normal saline in it, mix the blood samples and saline well, centrifuge the mixture at 3000 rpm to remove erythrocyte, and determinate insulin level of blood serum according to the method in this radio immunity reagent kit to check insulinotropic hormone secretion effect of sGLP-1. • The experiment result is shown in Table 2.

Healthy C57/BL mice = experiment: C peptide secretion promotion effect of sGLP-1 (serum C peptide, radio immunity kit); assay type: in vivo; conditions: fasting healthy C57/BL mice, 10 microgram injected
Method: Experiment Material and Method: • Healthy C57/BL mice (Provided by Shanghai Laboratory Animal Center, Chinese Academy of Sciences) • 0.9% NaCl solution, pure sGLP-1 product (Prepared in Example 1), pure GLP-1 product. • Radio immunity C-peptide determination reagent kit (Made by Shanghai Institute of Biological Products (SIBP), Ministry of Health P.R.China.) • Healthy C57/BL mice are divided into three groups. Use graduated capillary (wash the inner walls of the capillaries with 1 mg/mL heparin and dry the capillaries) to sample 50 microliters of blood from their orbital sinuses first, and inject the three groups of fasting mice with 10 microgram of sGLP-1, 10 microgram of GLP-1 and 200 microliters of normal saline, and regard this time as zero. Repeat the above operation at 5, 10, 20 and 30 minutes after that respectively. Place all the blood samples in a centrifuge tube with 50 microliters of normal saline in it, mix the blood samples and saline well, centrifuge the mixture at 3000 rpm to remove erythrocyte, and determinate C peptide level of blood serum according to the method in this radio immunity reagent kit to check C peptide secretion promotion effect of sGLP-1. • The experiment result is shown in Table 3.

Substance: Exendin 4
- half time in human body (in words) [1]: longer half time in human body
- concentration required for insulin secretion action (in words) [2]: lower

Substance: HGEGTFTSDVSSYLEGQAAKEFIAWL [No. 2, shortened glucagon-like peptide 1 of 26 amino acids, X1 is Gly]
- blood glucose-lowering effect (fasting blood glucose level) [3]: blood glucose-lowering effect prominently exceeding No. 1
- blood glucose-lowering effect (fasting blood glucose level) ([3]; listed as sGLP-1): better blood glucose-lowering effect than GLP-1 and its reconstructed sequence
- blood glucose level, 0 minutes after administration (NOD mice [4]): 4.08 mmol/L
- blood glucose level, 5 minutes after administration (NOD mice [4]): 4.34 mmol/L
- blood glucose level, 10 minutes after administration (NOD mice [4]): 4.28 mmol/L
- blood glucose level, 20 minutes after administration (NOD mice [4]): 3.98 mmol/L
- blood glucose-lowering effect (in words) (NOD mice [4]): have blood glucose-lowering effect
- insulin secretion promotion (in words) (NOD mice [5]): can prominently promote insulin secretion
- insulin level, 0 minutes after administration (NOD mice [5]): 2.88 10^−6 international unit
- insulin level, 5 minutes after administration (NOD mice [5]): 10.56 10^−6 international unit
- insulin level, 10 minutes after administration (NOD mice [5]): 19.88 10^−6 international unit
- insulin level, 20 minutes after administration (NOD mice [5]): 24.67 10^−6 international unit
- insulin level, 30 minutes after administration (NOD mice [5]): 16.45 10^−6 international unit
- insulin generation stimulation capacity compared with GLP-1 (in words) (NOD mice [5]; short-time versus medium and long-term): the same short-time insulin generation stimulation capacity as GLP-1 and the medium and long-term insulin generation stimulation capacity stronger than GLP-1
- c peptide secretion promotion (in words) (Healthy C57/BL mice): can prominently promote c peptide secretion
- c peptide secretion promotion capacity compared with GLP-1 (in words) (Healthy C57/BL mice): c peptide secretion promotion capacity exceeding GLP-1
- c peptide level, 0 minutes after administration (Healthy C57/BL mice): 0.07 pmol/mL
- c peptide level, 5 minutes after administration (Healthy C57/BL mice): 0.08 pmol/mL
- c peptide level, 10 minutes after administration (Healthy C57/BL mice): 0.20 pmol/mL
- c peptide level, 20 minutes after administration (Healthy C57/BL mice): 0.16 pmol/mL
- c peptide level, 30 minutes after administration (Healthy C57/BL mice): 0.15 pmol/mL

Substance: HSEGTFTSDVSSYLEGQAAKEFIAWL [No. 3, shortened glucagon-like peptide 1 of 26 amino acids, X1 is Ser]
- blood glucose-lowering effect (fasting blood glucose level) [3]: blood glucose-lowering effect prominently exceeding No. 1

Substance: His-Ala-Glu-Gly-Thr-Phe-Thr-Ser-Asp-Val-Ser-Ser-Tyr-Leu-Glu-Gly-Gln-Ala-Ala-Lys-Glu-Phe-Ile-Ala-Trp-Leu-Val-Lys-Gly-Arg [GLP-1]
- blood glucose level, 0 minutes after administration (NOD mice [4]): 4.11 mmol/L
- blood glucose level, 5 minutes after administration (NOD mice [4]): 5.12 mmol/L
- blood glucose level, 10 minutes after administration (NOD mice [4]): 4.87 mmol/L
- blood glucose level, 20 minutes after administration (NOD mice [4]): 4.03 mmol/L
- blood glucose-lowering effect (in words) (NOD mice [4]): have blood glucose-lowering effect
- insulin level, 0 minutes after administration (NOD mice [5]): 3.11 10^−6 international unit
- insulin level, 5 minutes after administration (NOD mice [5]): 9.76 10^−6 international unit
- insulin level, 10 minutes after administration (NOD mice [5]): 10.63 10^−6 international unit
- insulin level, 20 minutes after administration (NOD mice [5]): 11.23 10^−6 international unit
- insulin level, 30 minutes after administration (NOD mice [5]): 6.27 10^−6 international unit
- c peptide level, 0 minutes after administration (Healthy C57/BL mice): 0.07 pmol/mL
- c peptide level, 5 minutes after administration (Healthy C57/BL mice): 0.08 pmol/mL
- c peptide level, 10 minutes after administration (Healthy C57/BL mice): 0.15 pmol/mL
- c peptide level, 20 minutes after administration (Healthy C57/BL mice): 0.11 pmol/mL
- c peptide level, 30 minutes after administration (Healthy C57/BL mice): 0.09 pmol/mL
